Columns and labels:
Experiment in all cases: relative viability (nuclei count vs DMSO), 5 days (fraction); higher = more cells survive
[1] = compound: C[C@@]1(C(=O)Nc2ccc(F)nc2)CCCN1c1nc(Nc2cc(C3CC3)n[nH]2)c2cccn2n1 + Cc1cc(Nc2cc(N3CCN(C)CC3)nc(Sc3ccc(NC(=O)C4CC4)cc3)n2)n[nH]1 [Tozasertib] (partner 0.1 µM)
In short: (§1)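 For relative viability, nuclei counts in treated wells were divided by those in vehicle wells. Lung cancer cell lines had been pin-tool dosed in 1536-well plates the day after seeding and cultured for 5 days, then fixed and stained in one step (final 0.05% Triton X-100, 1% formaldehyde, 1 ug/ml Hoechst) and imaged at 4×. Doses were one drug alone or a fixed anchor-drug dose plus five library-drug doses (not always all listed) in √10 steps, and values are duplicate-plate medians.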

[2] = compound: C[C@@]1(C(=O)Nc2ccc(F)nc2)CCCN1c1nc(Nc2cc(C3CC3)n[nH]2)c2cccn2n1 + CC(=O)c1c(C)c2cnc(Nc3ccc(N4CCNCC4)cn3)nc2n(C2CCCC2)c1=O [Palbociclib] (partner 0.5 µM)
In short: as §1

[3] = compound: C[C@@]1(C(=O)Nc2ccc(F)nc2)CCCN1c1nc(Nc2cc(C3CC3)n[nH]2)c2cccn2n1 + N=C(N)NC(=N)NCCc1ccccc1 [Phenformin] (partner 250 µM)
In short: as §1

[4] = compound: C[C@@]1(C(=O)Nc2ccc(F)nc2)CCCN1c1nc(Nc2cc(C3CC3)n[nH]2)c2cccn2n1 + Cc1nc(NC(=O)N2CCC[C@H]2C(N)=O)sc1-c1ccnc(C(C)(C)C(F)(F)F)c1 [Alpelisib] (partner 2 µM)
In short: as §1

| Cell Line | relative viability ([1]; first compound 0.04 µM) | relative viability ([1]; first compound 0.1265 µM) | relative viability ([1]; first compound 0.4 µM) | relative viability ([1]; first compound 1.265 µM) | relative viability ([2]; first compound 0.04 µM) | relative viability ([2]; first compound 0.1265 µM) | relative viability ([2]; first compound 0.4 µM) | relative viability ([2]; first compound 1.265 µM) | relative viability ([3]; first compound 0.04 µM) | relative viability ([3]; first compound 0.1265 µM) | relative viability ([3]; first compound 0.4 µM) | relative viability ([3]; first compound 1.265 µM) | relative viability ([4]; first compound 0.04 µM) | relative viability ([4]; first compound 0.1265 µM) | relative viability ([4]; first compound 0.4 µM) | relative viability ([4]; first compound 1.265 µM) |
| --- | --- | --- | --- | --- | --- | --- | --- | --- | --- | --- | --- | --- | --- | --- | --- | --- |
| 201T | 0.827 | 0.709 | 0.431 | 0.863 | 0.317 | 0.264 | 0.311 | 0.365 | 0.346 | 0.355 | 0.32 | 0.36 | 0.893 | 0.836 | 0.767 | 0.942 |
| A549 |  |  |  |  |  |  |  |  | 0.131 | 0.155 | 0.101 | 0.281 | 0.638 | 0.392 | 0.333 | 0.35 |
| A-427 | 0.234 | 0.192 | 0.173 | 0.198 | 0.497 | 0.459 | 0.459 | 0.472 | 0.341 | 0.265 | 0.229 | 0.211 | 1.08 | 1.09 | 1.03 | 1.16 |
| ABC-1 | 0.2 | 0.128 | 0.184 | 0.165 | 0.647 | 0.42 | 0.437 | 0.477 | 0.182 | 0.211 | 0.216 | 0.216 | 0.875 | 0.845 | 0.659 | 0.945 |
| BEN | 0.551 | 0.529 | 0.517 | 0.501 | 0.445 | 0.484 | 0.472 | 0.427 | 0.291 | 0.229 | 0.272 | 0.281 | 1.16 | 1.37 | 0.929 | 1.16 |
| CAL-12T | 0.249 | 0.27 | 0.275 | 0.189 | 0.407 | 0.407 | 0.358 | 0.164 | 0.575 | 0.507 | 0.464 | 0.207 | 1.16 | 1.14 | 0.762 | 0.953 |
| COR-L23 | 0.195 | 0.23 | 0.131 | 0.107 | 0.242 | 0.308 | 0.197 | 0.173 | 0.454 | 0.407 | 0.406 | 0.241 | 0.721 | 0.711 | 0.563 | 0.412 |
| COR-L 105 | 0.373 | 0.332 | 0.426 | 0.3 | 0.416 | 0.422 | 0.435 | 0.438 | 0.422 | 0.368 | 0.346 | 0.393 | 0.871 | 0.805 | 0.689 | 0.806 |
| Calu-6 |  |  |  |  |  |  |  |  |  |  |  |  | 1.05 | 0.932 | 0.888 | 0.455 |
| ChaGo-K-1 | 0.209 | 0.197 | 0.201 | 0.207 | 0.972 | 0.828 | 0.86 | 0.93 | 0.403 | 0.283 | 0.296 | 0.4 |  |  |  |  |
| EBC-1 |  |  |  |  |  |  |  |  |  |  |  |  | 1.04 | 0.608 | 0.642 | 0.431 |
| EKVX | 0.363 | 0.349 | 0.259 | 0.28 | 0.387 | 0.277 | 0.279 | 0.286 | 0.204 | 0.215 | 0.218 | 0.221 | 0.837 | 0.672 | 0.581 | 0.666 |
